Assays:
[1] = largest among ARBs; cited from earlier work
[2] = system: YAMC (normal colonic epithelial cell line); assay: Colony forming assay (cell survival) after 4 Gy IR; format: cell-based, Murine; details: treatment 24 h post-IR at 10 μM, 100 μM and 1 mM, colonies counted at end of 96 h
Protocol: (§1) Gamma radiation: YAMC (normal colonic epithelial cell line) were exposed to 4 Gy gamma ionizing radiation (IR) with air pumped into the chamber during exposure. A Gammacell 40 ^137Cs gamma irradiator was used with a dose rate of 0.8 Gy IR per minute. Dosimetry measurements were performed using Fricke Dosimetry systems. Measured absorbance dose was: Central Dose Rate (0.790 Gy/min±2.9%); 3 o'clock position (0.804 Gy/min±3.8%); and 7 o'clock position (0.808 Gy/min±2.7%). The experiments were performed within 6 months of the dosimetry analysis.
Colony forming assay: Colony forming assay is universally recognized as the gold standard method for measuring the effects of radiation, chemotherapeutic drugs on cell viability, and cell survival. […] At the end of 96 h, cells were fixed and counted for number of colonies formed. The number of colonies formed represents the number of cells survived.
as §1, with “The experiments were performed within 6 months of the dosimetry analysis.” left out

[3] = system: C57BL/6 mice; assay: Barrier function study (intestinal epithelial permeability to FITC-dextran) after 14 Gy TBI; format: in vivo; details: three doses of 10 mg/kg body weight per day beginning 24 h post-IR, serum FITC 5 d post-IR
Protocol: as §1, with “radiation: 7-week-old C57BL/6 mice” for “radiation: YAMC (normal colonic epithelial cell line)”, “to total body irradiation (TBI) 14” for “to 4”, “chamber during.” for “chamber during exposure.”, “analysis. All IR treatments were begun in the morning. […] All animals received easy access to liquid gel food and water in the cage.” for “analysis.”
Barrier function study: Two hours before euthanasia (5 d post-IR), each mouse was orally administered (gavage) with 100 μL of FITC-dextran (FITC dextran 4; MW 4000) at a dose of 80 mg/100 g body weight. Serum analysis of FITC concentration was performed in triplicate using Synergy Bio TEK plate reader.
Gamma radiation: 7-week-old C57BL/6 mice were exposed to total body irradiation (TBI) 14 Gy gamma ionizing radiation (IR) with air pumped into the chamber during. A Gammacell 40 ^137Cs gamma irradiator was used with a dose rate of 0.8 Gy IR per minute. […] Measured absorbance dose was: Central Dose Rate (0.790 Gy/min±2.9%); 3 o'clock position (0.804 Gy/min±3.8%); and 7 o'clock position (0.808 Gy/min±2.7%). […]

[4] = system: YAMC (normal colonic epithelial cell line); assay: Clonogenic assay for self-renewal (spheroid formation) after 4 Gy IR; format: cell-based, Murine; details: treatment 24 h post-IR at 10 μM, 100 μM and 1 mM, spheroids counted at end of 192 h
Protocol: as §1
Clonogenic assay for self-renewal: Self-renewal is the hallmark for stem cells or stem-like cells. Clonogenic assay or clonal expansion of single cell into spheroids/organoids is the reputed method to analyze cell self-renewal. […] At the end of 192 h, spheroids were counted for quantitative assessment of the number of spheroids formed.
Gamma radiation: YAMC (normal colonic epithelial cell line) were exposed to 4 Gy gamma ionizing radiation (IR) with air pumped into the chamber during exposure. […] Measured absorbance dose was: Central Dose Rate (0.790 Gy/min±2.9%); 3 o'clock position (0.804 Gy/min±3.8%); and 7 o'clock position (0.808 Gy/min±2.7%). […]
Clonogenic assay for self-renewal: Self-renewal is the hallmark for stem cells or stem-like cells. […] At the end of 192 h, spheroids were counted for quantitative assessment of the number of spheroids formed. […]

Structure (SMILES) | volume of distribution [1] [L] | YAMC cell survival (number of colonies formed) compared to vehicle treatment [2] | intestinal epithelial permeability to FITC-dextran versus vehicle control [3] | self-renewal ability of YAMC cells (number of spheroids formed) compared to vehicle treatment [4]
CCCc1nc2c(C)cc(-c3nc4ccccc4n3C)cc2n1Cc1ccc(-c2ccccc2C(=O)O)cc1 [telmisartan, Telmisartan] | 500 | significantly increased | essentially the same | significantly increased
CC1(C)CC(O)CC(C)(C)N1[O] [tempol, 4-hydroxy-2,2,6,6-tetramethylpiperidin-1-oxyl] | – | significantly increased | essentially the same | significantly increased
